The values that follow come from patent US11052154B2, “Ras protein degradation inducing molecule and pharmaceutical composition” (Tokyo University of Science Foundation, priority 2016, dated 2021).

One test deals with T1, wild-type K-Ras protein (Homo sapiens, UniProt P01116).
T1 construct: expressed in transfected cells; host or cells: HeLa
Description: Degradation (knockdown) of wild-type K-Ras protein forcibly expressed in HeLa cells, Western blot analysis. The test is classed as cell-based. As to conditions: FIG. 2. Here is the method:
In Example 3, degradation (knockdown) of a forcibly expressed wild-type K-Ras protein in HeLa cells through TUS-007 was evaluated by Western blot analysis.
A plasmid expressing the wild-type K-Ras protein (K-Ras-WT) was prepared, as in Example 2.
As in Example 2, the plasmid was introduced into HeLa cells to transiently overexpress the wild-type K-Ras protein (specifically, a fusion protein of the wild-type K-Ras protein and GFP through a HA tag) or a DsRed protein for comparison in the cells. HeLa cells into which the plasmid had been introduced were seeded in a 24-well plate at a cell density of 4×10^4 cells/well, and then cultured under conditions of 37° C. and 5 vol % CO2 for 40 hours.
Culture was performed for 40 hours after introduction of the plasmid, and then TUS-007 was added to HeLa cells as follows. […]
After electrophoresis, proteins were transferred to a PVDF membrane (Immobion™-P, Millipore) under conditions of 100 V and 120 minutes using a tank-type blotting device and a transfer buffer (25 mM Tris-HCl, 195 mM glycine, 0.01% SDS, 15% methanol). […] Subsequently, the membrane was treated with a chemiluminescence reagent Immobilon™ Western (Millipore), and then chemiluminescence was detected using a lumino image analyzer LAS-3000 (FUJIFILM Corporation). […]
(In western blotting, separated proteins are transferred to a membrane and probed.)

A further test has as its system SW1990 cells. Description: Anti-tumor effect in mice subcutaneously implanted with human pancreatic cancer cells (SW1990 cells). The test is classed as in vivo, mouse. As to conditions: BALB/c nu/nu mice, SW1990 subcutaneous, oral 80 mg/kg once every 3 days, 7 doses, vs Vehicle; FIG. 9A. Here is the method:
In Example 10, TUS-007 was administered to mice subcutaneously implanted with human pancreatic cancer cells (SW1990 cells), and an anti-tumor effect was evaluated.
To the subcutis of T-cell deficient mice (BALB/cAJcl-nu/nu, 4 weeks old, female) (CLEA Japan, Inc.), 0.1 mL of cell suspension in which SW1990 cells were suspended in PBS so as to be 1×10^7 cells/mL was implanted using a 26-gauge injection needle (TERUMO CORPORATION).
Immediately before administration, TUS-007 was dissolved in DMSO, 0.5 mass % carboxymethyl cellulose (Code No. 039-01335, Wako Pure Chemical Industries, Ltd.) solution was added so that the concentration of DMSO became 2.5 vol %, followed by pulverization by ultrasonic treatment to prepare a suspension of TUS-007. When the tumors of mice with subcutaneously implanted SW1990 cells grew to a size of approximately 100 mm^3, the prepared TUS-007 suspension was orally administered by gavage with a gastric tube (Code No. 5202K, Fuchigami Kikai) at a dose of 80 mg/kg body weight once every 3 days for a total of 7 doses (n=6 to 9). As a control (Vehicle), 0.5 mass % carboxymethyl cellulose solution containing 2.5 vol % DMSO was administered in the same manner.
The tumor volume (mm^3) was calculated by measuring the tumor size using a caliper, and using the formula (minor axis diameter)^2×major axis diameter/2.

T1 sequence (P01116 1-188 isoform P01116-2): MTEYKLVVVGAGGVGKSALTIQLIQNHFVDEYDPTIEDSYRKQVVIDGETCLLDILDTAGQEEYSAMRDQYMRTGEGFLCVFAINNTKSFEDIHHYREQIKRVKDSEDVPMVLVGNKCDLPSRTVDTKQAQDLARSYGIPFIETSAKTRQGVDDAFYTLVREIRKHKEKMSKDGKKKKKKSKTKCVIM

`CCC(C)[C@H](NC(=O)CCCCCCNC(=O)[C@H](CC(C)C)NC(=O)CNC(=O)c1cc(Cl)ccc1Cl)C(=O)Nc1ccc2[nH]c(Cc3c[nH]c4ccccc34)nc2c1` (stereo in doubt) [TUS-007]: the “amount of the wild-type K-Ras protein (Western blot)” value at wild-type K-Ras protein (24 hours after addition, relative to control (DMSO)) is on record as “the amount of the wild-type K-Ras protein was reduced”. Also, at wild-type K-Ras protein (MLN2238 co-added, vs control (DMSO)), the “amount of the wild-type K-Ras protein when both TUS-007 and MLN2238 were added (Western blot)” value is given as “the amount of the wild-type K-Ras protein was increased as compared with the amount of the control (DMSO)”. In addition, in the test on SW1990 cells, the “increase of the tumor volume” value was “the increase of the tumor volume was significantly suppressed (p=0.004)”.
